Here are results for 2 compounds from US11534415B2, “Use of colchicine to inhibit tumor growth and metastases” (Murray and Poole Enterprises, LTD., priority 2018, dated 2022).

For experiment [1], the system named is subjects with a first episode of acute pericarditis. As to conditions: at 18 months; aspirin alone or plus colchicine 1.0 to 2.0 mg first day then 0.5 to 1.0 mg/day for 3 months; p=0.004; cited from earlier work.
The subject of experiment [2] is subjects with a first episode of recurrent pericarditis. To be noted: actual rates at 18 months; aspirin alone or plus colchicine 1.0-2.0 mg first day then 0.5-1.0 mg/d for 6 months; cited from earlier work.
Experiment [3] concerns commonly used tumor models. Briefly: Example 5: anti-tumor effects of colchicine in animals (tumor models). Format: in vivo. To be noted: vs placebo control group. As for the experimental part:
A sufficient amount of specimen of a suitable animal species are included in this study utilizing commonly used tumor models. A therapeutically effective amount of colchicine is administered to the test animals. Placebo is administered to a control group. Tumor growth is induced in all animals.

In experiment [4] the test system is commonly used tumor cell lines with or without combination with cultivated PBMCs. In words: Example 6: anti-tumor effects of colchicine in vitro. Format: cell-based. To be noted: incubation with colchicine and/or cultivation with pretreated PBMCs. From the text: A suitable in vitro model for studying the anti-tumor effects of drugs is utilized for this test. Such a test may include commonly used tumor cell lines with or without combination with cultivated PBMCs.

For experiment [5], the system named is subjects with stable coronary disease. To be noted: colchicine 0.5 mg/day in addition to statins and other standard secondary prevention therapies; median of 3 years; cited from earlier work.
The test system of experiment [6] is human lipopolysaccharide (LPS) stimulated peripheral blood mononuclear cells (PBMC). To be noted: colchicine added to LPS stimulated PBMC; cited from earlier work.
Experiment [7] has as its system co-cultures of PBMC with either HT-29 or RKO human colon cancer cells. As to conditions: co-culture with HT-29 or RKO cells; cited from earlier work.
Experiment [8] relates to subjects with cancer or in risk of cancer. In words: Example 4: randomized observer blinded end-point trial of sustained release colchicine added to standard anti-cancer therapies. To be noted: long-term low dose sustained release colchicine 0.5 mg/day vs standard therapy alone.
Protocol: To assess the therapeutic effects of a sustained release formulation in subjects with or in subjects with an increased risk of cancer, a prospective randomized observer blinded end-point trial was conducted to determine whether adding 0.5 mg/day of colchicine to standard anti-cancer therapies inhibits, delays, or reduces tumor growth or metastases in a cancer subject.
A sufficient amount of subjects with cancer or in risk of cancer are randomized to long-term low dose sustained release colchicine or to standard therapy alone.

Consider `CC(=O)Oc1ccccc1C(=O)O` [aspirin], for which the recurrence rate in experiment [1] is recorded as 32.3%; in experiment [2], 50.6%.
As for `COc1cc2c(c(OC)c1OC)-c1ccc(OC)c(=O)cc1[C@@H](NC(C)=O)CC2` [colchicine, (−)-N-[(7S, 12aS)-1,2,3,10-tetramethoxy-9-oxo-5,6,7,9-tetrahydrobenzo[a]heptalen-7-yl]-acetamide], the tumor growth result in experiment [3] is on record as “tumor growth is prevented and/or reduced”. For the same compound, the “growth of tumor cell lines” value in experiment [4] was “inhibits or reduces growth of tumor cell lines”. In experiment [1], the recurrence rate is reported as 10.7%. Also, the recurrence rate in experiment [2] is recorded as 24.0%. Further, in experiment [5], the “prevention of cardiovascular events” value is recorded as “appeared effective for the prevention of cardiovascular events”. In addition, in experiment [6], the IL-1β release result was “increased” and the TNF-α release result is “decreased”. For the same compound, in experiment [7], the “IL-1β production by cancer cells-stimulated PBMC” value is on record as “promoted cancer cells-stimulated PBMC to produce IL-1β”; the “release of TNF-α and IL-10” value is “inhibit the release of tumor necrosis factor (TNF)-α and IL-10”. Besides, the “cancer incidence and mortality” value in experiment [8] was “significantly lower cancer incidence and mortality”.
